The text below walks through data of patent US20210379184A1, “Deep Eutectic Solvent Platform for Oral Pharmaceutical Formulations” (SeraNovo B.V., priority 2018, published 2021).

Molecules are shown by their SMILES. ≈ marks a conversion by molar mass, not a printed value. Where only a bound is given, the exact number is not on record here.

The nature of the data set: physchem. From the text: The DES systems contained propylene glycol, a specific polymer solubilizer, and one or more (NA)DES constituents.

Turning to `CC(=O)N1CCN(c2ccc(OCC3COC(Cn4ccnc4)(c4ccc(Cl)cc4Cl)O3)cc2)CC1` (centres unmarked) [Ketoconazole], the concentration in solution (20 °C, pH 7, water) (solubility) came to 0.09 µg/mL (≈ 0.169 µM).

For `COc1ccccc1OCCNCC(O)COc1cccc2[nH]c3ccccc3c12` (centres unmarked) [Carvedilol], the concentration in solution (20 °C, pH 7, water) (solubility) was 0.6 µg/mL (≈ 1.48 µM).

With `CC(C)Cc1ccc(C(C)C(=O)O)cc1` (centres unmarked) [Ibuprofen], the “factor by which the concentration solubilized in DES exceeds the solubility of the drug in water” value is reported as “at least 100”. For the same compound, the solubility (as a rule, the concentration that dissolves in the medium under given conditions) (20 °C, pH 7, water) amounted to 21 µg/mL (≈ 102 µM).

Where the note is “20 °C, pH 7, water”, `O=C(O)c1ccccc1Nc1cccc(C(F)(F)F)c1` [Flufenamic Acid] had a solubility of 9.1 µg/mL (≈ 32.4 µM).

On to `CCC(C)n1ncn(-c2ccc(N3CCN(c4ccc(OCC5COC(Cn6cncn6)(c6ccc(Cl)cc6Cl)O5)cc4)CC3)cc2)c1=O` (centres unmarked) [Itraconazole], for which the “Concentration solubilized API (mg/mL)” value is listed as “up to 200 mg/mL” and the “factor by which the concentration solubilized in DES exceeds the solubility of the drug in water” value is ≤ 10.000.000. Moreover, where the note is “20 °C, pH 7, water”, the concentration in solution (solubility) was 0.004 µg/mL (≈ 0.00567 µM). For the same compound, the solubility (organic solvent or mixture, solubility of itraconazole) was less than 25000 µg/mL.

As to `NC(=O)N1c2ccccc2C=Cc2ccccc21` [Carbamazepine], the solubility is, setting by setting: (20 °C, pH 7, water) 17 µg/mL (≈ 72 µM); (organic solvent or mixture, Concentration solubilized API (mg/mL)) more than 100000 µg/mL.
